Assay results published in the supplement of paper PMC10307832.

Legend:
Assay in all cases: relative viability (nuclei count vs DMSO), 5 days (fraction); higher = more cells survive
LU99A = test system: LU99A
Summary of the method: (§1)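 Lung cancer cell lines were pin-tool dosed in 1536-well plates on the day after seeding, with either a lone drug or a fixed anchor-drug dose plus five library-drug doses (not always all listed) in √10 steps. Nuclei were counted on 4× images after 5 days. Relative viability is the ratio of treated-well to vehicle-well nuclei counts, with each value a median of duplicate plates.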

NCI-H1944 = test system: NCI-H1944
Summary of the method: as §1

LCLC-103H = test system: LCLC-103H
Summary of the method: as §1

NCI-H650 = test system: NCI-H650
Summary of the method: as §1

NCI-H2023 = test system: NCI-H2023
Summary of the method: as §1

NCI-H1793 = test system: NCI-H1793
Summary of the method: as §1

NCI-H838 = test system: NCI-H838
Summary of the method: as §1

SK-MES-1 = test system: SK-MES-1
Summary of the method: as §1

EPLC-272H = test system: EPLC-272H
Summary of the method: as §1

EMC-BAC-2 = test system: EMC-BAC-2
Summary of the method: as §1

HCC-827 = test system: HCC-827
Summary of the method: as §1

NCI-H1395 = test system: NCI-H1395
Summary of the method: as §1

NCI-H1563 = test system: NCI-H1563
Summary of the method: as §1

H3255 = test system: H3255
Summary of the method: as §1

COR-L23 = test system: COR-L23
Summary of the method: as §1

NCI-H520 = test system: NCI-H520
Summary of the method: as §1

NCI-H1651 = test system: NCI-H1651
Summary of the method: as §1

ChaGo-K-1 = test system: ChaGo-K-1
Summary of the method: as §1

NCI-H2085 = test system: NCI-H2085
Summary of the method: as §1

NCI-H2087 = test system: NCI-H2087
Summary of the method: as §1

NCI-H2405 = test system: NCI-H2405
Summary of the method: as §1

CC(=O)O[C@@]12CO[C@@H]1C[C@H](O)[C@@]1(C)C(=O)[C@H](O)C3=C(C)[C@@H](OC(=O)[C@H](O)[C@@H](NC(=O)OC(C)(C)C)c4ccccc4)C[C@@](O)([C@@H](OC(=O)c4ccccc4)[C@H]21)C3(C)C [Docetaxel] + COc1cc2c(Oc3ccc(NC(=O)C4(C(=O)Nc5ccc(F)cc5)CC4)cc3F)ccnc2cc1OCCCN1CCOCC1 [Foretinib] (partner 0.25 µM)
relative viability (LU99A; first compound 0.0002 µM): 0.718 | relative viability (LU99A; first compound 0.000632 µM): 0.794 | relative viability (LU99A; first compound 0.002 µM): 0.486 | relative viability (LU99A; first compound 0.006325 µM): 0.393 | relative viability (LU99A; first compound 0.02 µM): 0.259 | relative viability (NCI-H1944; first compound 0.0002 µM): 0.85 | relative viability (NCI-H1944; first compound 0.000632 µM): 0.86 | relative viability (NCI-H1944; first compound 0.002 µM): 0.692 | relative viability (NCI-H1944; first compound 0.006325 µM): 0.31 | relative viability (NCI-H1944; first compound 0.02 µM): 0.151 | relative viability (LCLC-103H; first compound 0.0002 µM): 0.674 | relative viability (LCLC-103H; first compound 0.000632 µM): 0.61 | relative viability (LCLC-103H; first compound 0.002 µM): 0.485 | relative viability (LCLC-103H; first compound 0.006325 µM): 0.339 | relative viability (LCLC-103H; first compound 0.02 µM): 0.272 | relative viability (NCI-H650; first compound 0.0002 µM): 0.958 | relative viability (NCI-H650; first compound 0.000632 µM): 0.921 | relative viability (NCI-H650; first compound 0.002 µM): 0.299 | relative viability (NCI-H650; first compound 0.006325 µM): 0.277 | relative viability (NCI-H650; first compound 0.02 µM): 0.218 | relative viability (NCI-H2023; first compound 0.0002 µM): 0.735 | relative viability (NCI-H2023; first compound 0.000632 µM): 0.868 | relative viability (NCI-H2023; first compound 0.002 µM): 0.111 | relative viability (NCI-H2023; first compound 0.006325 µM): 0.102 | relative viability (NCI-H2023; first compound 0.02 µM): 0.0789 | relative viability (NCI-H1793; first compound 0.0002 µM): 0.592 | relative viability (NCI-H1793; first compound 0.000632 µM): 0.493 | relative viability (NCI-H1793; first compound 0.002 µM): 0.391 | relative viability (NCI-H1793; first compound 0.006325 µM): 0.204 | relative viability (NCI-H1793; first compound 0.02 µM): 0.186 | relative viability (NCI-H838; first compound 0.0002 µM): 0.98 | relative viability (NCI-H838; first compound 0.000632 µM): 1.03 | relative viability (NCI-H838; first compound 0.002 µM): 0.262 | relative viability (NCI-H838; first compound 0.006325 µM): 0.283 | relative viability (NCI-H838; first compound 0.02 µM): 0.162 | relative viability (SK-MES-1; first compound 0.0002 µM): 0.84 | relative viability (SK-MES-1; first compound 0.000632 µM): 0.923 | relative viability (SK-MES-1; first compound 0.002 µM): 0.508 | relative viability (SK-MES-1; first compound 0.006325 µM): 0.368 | relative viability (SK-MES-1; first compound 0.02 µM): 0.168 | relative viability (EPLC-272H; first compound 0.0002 µM): 0.7 | relative viability (EPLC-272H; first compound 0.000632 µM): 0.278 | relative viability (EPLC-272H; first compound 0.002 µM): 0.249 | relative viability (EPLC-272H; first compound 0.006325 µM): 0.0711 | relative viability (EPLC-272H; first compound 0.02 µM): 0.0667 | relative viability (EMC-BAC-2; first compound 0.0002 µM): 1.02 | relative viability (EMC-BAC-2; first compound 0.000632 µM): 0.948 | relative viability (EMC-BAC-2; first compound 0.002 µM): 0.36 | relative viability (EMC-BAC-2; first compound 0.006325 µM): 0.348 | relative viability (EMC-BAC-2; first compound 0.02 µM): 0.205 | relative viability (HCC-827; first compound 0.0002 µM): 1.03 | relative viability (HCC-827; first compound 0.000632 µM): 1 | relative viability (HCC-827; first compound 0.002 µM): 0.771 | relative viability (HCC-827; first compound 0.006325 µM): 0.362 | relative viability (HCC-827; first compound 0.02 µM): 0.291 | relative viability (NCI-H1395; first compound 0.0002 µM): 0.883 | relative viability (NCI-H1395; first compound 0.000632 µM): 0.874 | relative viability (NCI-H1395; first compound 0.002 µM): 0.904 | relative viability (NCI-H1395; first compound 0.006325 µM): 0.456 | relative viability (NCI-H1395; first compound 0.02 µM): 0.342 | relative viability (NCI-H1563; first compound 0.0002 µM): 0.988 | relative viability (NCI-H1563; first compound 0.000632 µM): 0.862 | relative viability (NCI-H1563; first compound 0.002 µM): 0.966 | relative viability (NCI-H1563; first compound 0.006325 µM): 0.922 | relative viability (NCI-H1563; first compound 0.02 µM): 0.628 | relative viability (H3255; first compound 0.0002 µM): 0.889 | relative viability (H3255; first compound 0.000632 µM): 0.909 | relative viability (H3255; first compound 0.002 µM): 0.66 | relative viability (H3255; first compound 0.006325 µM): 0.335 | relative viability (H3255; first compound 0.02 µM): 0.266 | relative viability (COR-L23; first compound 0.0002 µM): 0.891 | relative viability (COR-L23; first compound 0.000632 µM): 0.896 | relative viability (COR-L23; first compound 0.002 µM): 0.561 | relative viability (COR-L23; first compound 0.006325 µM): 0.173 | relative viability (COR-L23; first compound 0.02 µM): 0.116 | relative viability (NCI-H520; first compound 0.0002 µM): 0.708 | relative viability (NCI-H520; first compound 0.000632 µM): 0.808 | relative viability (NCI-H520; first compound 0.002 µM): 0.341 | relative viability (NCI-H520; first compound 0.006325 µM): 0.218 | relative viability (NCI-H520; first compound 0.02 µM): 0.173 | relative viability (NCI-H1651; first compound 0.0002 µM): 0.795 | relative viability (NCI-H1651; first compound 0.000632 µM): 0.789 | relative viability (NCI-H1651; first compound 0.002 µM): 0.238 | relative viability (NCI-H1651; first compound 0.006325 µM): 0.128 | relative viability (NCI-H1651; first compound 0.02 µM): 0.107 | relative viability (ChaGo-K-1; first compound 0.0002 µM): 0.89 | relative viability (ChaGo-K-1; first compound 0.000632 µM): 0.824 | relative viability (ChaGo-K-1; first compound 0.002 µM): 0.439 | relative viability (ChaGo-K-1; first compound 0.006325 µM): 0.329 | relative viability (ChaGo-K-1; first compound 0.02 µM): 0.174 | relative viability (NCI-H2085; first compound 0.0002 µM): 0.852 | relative viability (NCI-H2085; first compound 0.000632 µM): 0.965 | relative viability (NCI-H2085; first compound 0.002 µM): 0.568 | relative viability (NCI-H2085; first compound 0.006325 µM): 0.34 | relative viability (NCI-H2085; first compound 0.02 µM): 0.414 | relative viability (NCI-H2087; first compound 0.0002 µM): 0.955 | relative viability (NCI-H2087; first compound 0.000632 µM): 0.477 | relative viability (NCI-H2087; first compound 0.002 µM): 0.249 | relative viability (NCI-H2087; first compound 0.006325 µM): 0.115 | relative viability (NCI-H2087; first compound 0.02 µM): 0.105 | relative viability (NCI-H2405; first compound 0.0002 µM): 1.05 | relative viability (NCI-H2405; first compound 0.000632 µM): 1 | relative viability (NCI-H2405; first compound 0.002 µM): 0.6 | relative viability (NCI-H2405; first compound 0.006325 µM): 0.402 | relative viability (NCI-H2405; first compound 0.02 µM): 0.306
